Data: patent publication EP3928779A1 (Chugai Seiyaku Kabushiki Kaisha, priority 2014, dated 2016)

Test system: rat small-intestinal brush border membrane vesicles
Assay: Inhibitory effect on 33PO4 uptake into rat small-intestinal brush border membrane vesicles (rapid filtration method)
Format: biochemical
Details: 33PO4 uptake into rat small-intestinal BBMVs; test compound 1 µM; reacted for 60 seconds
In short: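 Uptake of ^33PO4 was measured by rapid filtration and liquid scintillation counting of filter-retained vesicles, after quenching with ice-cold 110 mM NaCl/1 mM KH2PO4/10 mM HEPES pH 7.5. Vesicles were brush border membranes from the upper small intestine of female Wistar rats aged 4–5 weeks.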

SMILES	Rate of uptake inhibition (%) (1 µM)
CCN1[C@@H](C(C)(C)C)C(O)=C(C(=O)Nc2cc(F)c(Br)c(F)c2)C(=O)N1Cc1cccc(F)c1F [Example 246]	52%
CC(C)(C)[C@H]1C(O)=C(C(=O)Nc2ccc(Cl)cc2-c2ccc(C(F)(F)F)nc2)C(=O)N(Cc2cccc(F)c2F)N1CC(F)(F)F [Example 247]	51%
CC(C)(C)[C@H]1C(O)=C(C(=O)Nc2cc(F)c(Br)c(F)c2)C(=O)N(Cc2cccc(F)c2F)N1CC(F)(F)F [Example 248]	45%
CC(C)[C@@H]1C(O)=C(C(=O)Nc2ccc(C(F)(F)F)cc2-c2cc(C(F)(F)F)ncn2)C(=O)N(Cc2cccc(F)c2F)N1C [Example 249]	50%
CC(C)[C@@H]1C(O)=C(C(=O)Nc2ccc(Cl)cc2-c2cc(C(F)(F)F)ncn2)C(=O)N(Cc2cccc(F)c2F)N1C [Example 250]	52%
CC(C)[C@@H]1C(O)=C(C(=O)Nc2ccc(Cl)cc2-c2ccc(C(F)(F)F)nc2)C(=O)N(Cc2cccc(F)c2F)N1C [Example 251]	43%
CC(C)[C@H]1C(O)=C(C(=O)Nc2ccc(C(F)(F)F)cc2-c2cc(C(F)(F)F)ncn2)C(=O)N(Cc2cccc(F)c2F)N1C [Example 252]	53%
CC(C)[C@H]1C(O)=C(C(=O)Nc2ccc(C(F)(F)F)cc2-c2ccc(C(F)(F)F)nc2)C(=O)N(Cc2cccc(F)c2F)N1C [Example 253]	40%
CC(C)[C@H]1C(O)=C(C(=O)Nc2cc(F)c(Br)c(F)c2)C(=O)N(Cc2cccc(F)c2F)N1C [Example 254]	58%
CN1N(Cc2cccc(F)c2F)C(=O)C(C(=O)Nc2ccc(Cl)cc2-c2cc(C(F)(F)F)ncn2)=C(O)C12CCC2 [Example 255]	80%
CN1N(Cc2cccc(F)c2F)C(=O)C(C(=O)Nc2ccc(Cl)cc2-c2ccc(C(F)(F)F)nc2)=C(O)C12CCC2 [Example 256]	79%
CN1N(Cc2cccc(F)c2F)C(=O)C(C(=O)Nc2cc(F)c(Br)c(F)c2)=C(O)C12CCC2 [Example 257]	71%
CN1N(Cc2cccc(F)c2F)C(=O)C(C(=O)Nc2ccc(Br)c(C(F)(F)F)n2)=C(O)C12CCC2 [Example 258]	87%
Cc1nc(NC(=O)C2=C(O)C3(CCC3)N(C)N(Cc3cccc(F)c3F)C2=O)ccc1Br [Example 259]	52%
CN1N(Cc2cccc(F)c2F)C(=O)C(C(=O)Nc2ccc(C(F)(F)F)cc2-c2cc(C(F)(F)F)ncn2)=C(O)C12CCCC2 [Example 260]	70%
CN1N(Cc2cccc(F)c2F)C(=O)C(C(=O)Nc2ccc(Cl)cc2-c2cc(C(F)(F)F)ncn2)=C(O)C12CCCC2 [Example 261]	77%
Cc1nc(NC(=O)C2=C(O)C3(CCCC3)N(C)N(Cc3cccc(F)c3F)C2=O)ccc1Br [Example 262]	43%
CN1N(Cc2cccc(F)c2F)C(=O)C(C(=O)Nc2ccc(Br)c(C(F)(F)F)n2)=C(O)C12CCCC2 [Example 263]	66%
CN1[C@@H](C(C)(C)C)C(O)=C(C(=O)Nc2ccc(Cl)cc2-c2cc(C(F)(F)F)ncn2)C(=O)N1Cc1ccc(OCCN2CCOCC2)c(F)c1F [Example 265, (3S)-3-tert-Butyl-N-[4-chloro-2-[6-(trinuoromethyl)pyrimidin-4-yl]phenyl]-1-[[2,3-difluoro-4-(2-morpholin-4-ylethoxy)phenyl]methyl]-4-hydroxy-2-methyl-6-oxo-3H-pyridazine-5-carboxamide]	52%

SMILES	Rate of uptake inhibition (%) (1 µM)
CN1[C@@H](C(C)(C)C)C(O)=C(C(=O)Nc2ccc(C(F)(F)F)cc2-c2ccc(C(F)(F)F)nc2)C(=O)N1Cc1ccc(OCCN2CCOCC2)c(F)c1F [Example 266]	62%
CSc1ccc(-c2cc(C(F)(F)F)ccc2NC(=O)C2=C(O)[C@H](C(C)(C)C)N(C)N(Cc3ccc(OCCN4CCOCC4)c(F)c3F)C2=O)cn1 [Example 268]	63%
CN1[C@@H](C(C)(C)C)C(O)=C(C(=O)Nc2ccc(C(F)(F)F)cc2-c2ccnc(C#N)c2)C(=O)N1Cc1ccc(OCCN2CCOCC2)c(F)c1F [Example 271]	60%
CN1[C@@H](C(C)(C)C)C(O)=C(C(=O)Nc2ccc(Cl)cc2-c2cc(C#N)ncn2)C(=O)N1Cc1ccc(OCCN2CCOCC2)c(F)c1F [Example 272]	43%
CN1[C@@H](C(C)(C)C)C(O)=C(C(=O)Nc2cnc(C(F)(F)F)nc2-c2ccc(C(F)(F)F)nc2)C(=O)N1Cc1ccc(OCCN2CCOCC2)c(F)c1F [Example 273]	41%
Cc1c(C#N)ncnc1-c1cc(Cl)ccc1NC(=O)C1=C(O)[C@H](C(C)(C)C)N(C)N(Cc2ccc(OCCN3CCOCC3)c(F)c2F)C1=O [Example 274]	43%
Cc1c(Cl)ncnc1-c1cc(Cl)ccc1NC(=O)C1=C(O)[C@H](C(C)(C)C)N(C)N(Cc2ccc(OCCN3CCOCC3)c(F)c2F)C1=O [Example 275]	42%
Cc1c(Cl)ncnc1-c1cc(C(F)(F)F)ccc1NC(=O)C1=C(O)[C@H](C(C)(C)C)N(C)N(Cc2ccc(OCCN3CCOCC3)c(F)c2F)C1=O [Example 276]	68%
CN1[C@@H](C(C)(C)C)C(O)=C(C(=O)Nc2ccc(C(F)(F)F)cc2C(F)(F)F)C(=O)N1Cc1ccc(OCCN2CCOCC2)c(F)c1F [Example 277]	41%
Cc1c(-c2cc(C(F)(F)F)ccc2NC(=O)C2=C(O)[C@H](C(C)(C)C)N(C)N(Cc3ccc(OCCN4CCOCC4)c(F)c3F)C2=O)ncnc1C(F)(F)F [Example 278]	69%
CC(C)[C@H]1C(O)=C(C(=O)Nc2ccc(C(F)(F)F)cc2-c2ccc(C(F)(F)F)nc2)C(=O)N(Cc2ccc(OCCN3CCOCC3)c(F)c2F)N1C [Example 280]	50%
CC(C)[C@H]1C(O)=C(C(=O)Nc2ccc(Cl)cc2-c2ccc(C(F)(F)F)nc2)C(=O)N(Cc2ccc(OCCN3CCOCC3)c(F)c2F)N1C [Example 281]	41%
CN1N(Cc2ccc(OCCN3CCOCC3)c(F)c2F)C(=O)C(C(=O)Nc2ccc(C(F)(F)F)cc2-c2ccc(C(F)(F)F)nc2)=C(O)C12CCC2 [Example 282]	55%
Cc1c(C#N)ncnc1-c1cc(C(F)(F)F)ccc1NC(=O)C1=C(O)C2(CCC2)N(C)N(Cc2ccc(OCCN3CCOCC3)c(F)c2F)C1=O [Example 283]	45%
CN1N(Cc2ccc(OCCN3CCOCC3)c(F)c2F)C(=O)C(C(=O)Nc2ccc(C(F)(F)F)cc2-c2ncnc(C(F)(F)F)c2Cl)=C(O)C12CCC2 [Example 284]	46%
Cc1c(-c2cc(C(F)(F)F)ccc2NC(=O)C2=C(O)C3(CCC3)N(C)N(Cc3ccc(OCCN4CCOCC4)c(F)c3F)C2=O)ncnc1C(F)(F)F [Example 285]	62%
CN1N(Cc2ccc(OCCN3CCOCC3)c(F)c2F)C(=O)C(C(=O)Nc2ccc(Cl)cc2-c2cc(C(F)(F)F)ncn2)=C(O)C12CCCC2 [Example 286]	50%
CN1N(Cc2ccc(OCCN3CCOCC3)c(F)c2F)C(=O)C(C(=O)Nc2ccc(C(F)(F)F)cc2-c2ccc(C(F)(F)F)nc2)=C(O)C12CCCC2 [Example 287]	47%
